Assay results as given in US20260306500A1, “METHOD OF INHIBITING ADENOSINE TRIPHOSPHATE SECRETION, METHOD OF INHIBITING HEPATIC STELLATE CELL ACTIVATION, METHOD OF DEACTIVATING HEPATIC STELLATE CELL, METHOD OF TREATING HEPATIC FIBROSIS, METHOD OF TREATING NON-ALCOHOLIC STEATOHEPATITIS, AND METHOD OF TREATING PSORIASIS” (Kurume University, priority 2023, published 2026).

Legend:
LX-2 cells = experiment: ATP secretion from LX-2 cells; assay type: cell-based, human
Experimental: Cells of the immortalized human hepatic stellate cell line LX-2 (manufactured by Merck) was cultured in Dulbecco's modified Eagle's medium (DMEM, 4500 mg/l Glucose, D5796, manufactured by Sigma-Aldrich) supplemented with inactivated 2% fetal bovine serum (FBS), 10 IU/ml penicillin, and 10 IU/ml streptomycin in a T25 or T75 flask at 37° C. in 5% CO2.
LX-2 cells (2×10^6 cells per well) were seeded in a collagen-coated 6-well culture dish containing Dulbecco's modified Eagle's medium (manufactured by Sigma-Aldrich) supplemented with 10 IU/ml penicillin, […] 2% fetal bovine serum, and cultured in 5% CO2 at 37° C. After 3 days, the LX-2 cells were washed twice and preincubated in Krebs-Ringer buffer (10 mM HEPES-Tris, pH 7.4, 128 mM NaCl, 1.9 mM KCl, 1.2 mM KH2PO4, 1.3 mM MgSO4, 26 mM NaHCO3, 2.4 mM CaCl2, 10 mM glucose, 0.2% (w/v) bovine serum albumin) with or without 10 μM clodronate. The LX-2 cells were then stimulated with Krebs-Ringer buffer supplemented with ionomycin (manufactured by Cayman) regardless of whether clodronate was present or not. For the stimulation, 1 mM EGTA (manufactured by Dojindo) or 10 μM serotonin (5-HT, manufactured by Sigma-Aldrich) was used. The ATP concentration in the culture supernatant was measured in the same manner as in Example 6.
For an siRNA experiment, a TriFECTa (trademark) RNAi Kit (manufactured by Integrated DNA Technologies) was used. A scramble RNA (scRNA) as a control siRNA, or a VNUT-specific siRNA, was incubated with Lipofectamine 3000 reagent (manufactured by Invitrogen) in OptiMEM reduced-serum medium (#31985070, manufactured by Gibco) at room temperature for 15 minutes, and then added directly to the cultured cells. The LX-2 cells as the transfection mixture were plated, and then cultured for 48 hours. The base sequences of VNUT siRNA forward and VNUT siRNA reverse, used for the above kit, are shown in SEQ ID NOs: 1 and 2, respectively. A positive control for an endogenous gene (#51-01-08-02) and a negative control (#51-01-14-03) were used.

[1] = test system: chromaffin granule membrane; experiment: ATP transport (uptake of radiolabeled ATP) in chromaffin granule membrane vesicles; assay type: biochemical, cattle; settings: role: inhibitor, 1 mM 3H-ATP
Experimental: Chromaffin granule membranes were prepared from adrenal glands collected from slaughtered cattle according to Reference A (Nathan Nelson et al., 1988, Chromaffin Granule Proton Pump, Methods in Enzymology, 157, 619-633). Chromaffin granule membranes prepared by sucrose density gradient centrifugation were suspended in 2 ml of SME buffer (20 mM MOPS-tris (pH 7.0), 0.3 M sucrose, 5 mM EDTA, 10 μg/ml leupeptin, and 10 μg/ml pepstatin)+25% glycerol, and the resulting suspension was aliquoted and stored at −80° C. Under these conditions, the ATP transport activity, the V-ATPase activity, and the catecholamine transport activity remain fully active for at least one year.
An ATP transport inhibition experiment for the chromaffin granule membrane was carried out according to Reference B (Yoshinori Moriyama et al., 2022, Is the vesicular nucleotide transporter a molecular target of eicosapentaenoic acid?, Frontiers in Pharmacology, 103389). About 20 μg of chromaffin granule membranes were added to 0.5 ml of measurement buffer (20 mM MOPS-tris (pH 7.0), 0.3 M sucrose, 5 mM potassium chloride, 5 mM magnesium acetate, 5 mM creatine phosphate, 10 units of creatine kinase, and 1 mM 3[H]-ATP [15 KBq/assay]), followed by incubation at 30° C. for 1 hour. Through a Millipore MCE membrane filter with a pore size […], 0.2 ml of the reaction liquid was filtered by suction. Thereafter, the filter was washed with 10 ml of 20 mM MOPS-tris (pH 7.0), 0.3 M sucrose, 5 mM potassium chloride, and 5 mM magnesium acetate, and dissolved in 10 ml of Clear-sol II (manufactured by Nacalai Tesque, Inc.). The radioactivity was then measured using a liquid scintillation counter (N=3).
The reaction was initiated by adding 50 mM ^3[H]-ATP to a final concentration of 1 mM. The 50 mM ^3[H]-ATP was prepared by mixing an ATP-tris solution (manufactured by Sigma-Aldrich) with [2,8-^3H]adenosine triphosphate tetrasodium salt (26.0 Ci/mmol) (manufactured by New England Nuclear). PEP was used as a test reagent, and pyruvic acid was used as a negative control. Five minutes before the addition of ATP, PEP or pyruvic acid, as a solution in 20 mM MOPS-tris (pH 7.0), 0.3 M sucrose, 5 mM potassium chloride, and 5 mM magnesium acetate, was added to the measurement liquid to a final PEP concentration of 0.02, 0.05, 0.1, 0.2, 0.4, or 1 mM, or to a final pyruvic acid concentration of 0.5 or 1 mM.
Chromaffin granule membrane vesicles were prepared in the same manner as in Example 5, and uptake of radiolabeled ATP into the vesicles was measured. Transport activity of catecholamine (dopamine) and ATP-dependent proton transport by V-ATPase were also measured in the same manner as in Example 5.

[2] = test system: human epidermal keratinocytes; experiment: ATP secretion from human epidermal keratinocytes promoted by ionomycin; assay type: cell-based; settings: 5 μM ionomycin as stimulant, keratinocytes
Experimental: Human epidermal keratinocytes (Cryopreserved HEK, Lot 1758, Cell Applications Inc.) were cultured using an Epivita Keratinocyte Growth Medium Kit according to the manufacturer's instructions. The procedure was as follows. A supplement medium was added to a hydrocortisone-containing basal medium included in the medium preparation kit to prepare a complete medium. The medium in the dish was removed by aspiration. The cells were washed with 5 ml of BSS (Gbco), and then the BSS was removed by aspiration. After addition of 5 to 6 ml of trypsin/EDTA solution (Gbco), the dish was incubated at 37° C. for 2 minutes. After addition of 5 ml of trypsin neutralization solution, the resulting cell suspension was transferred into two 15-ml Falcon tubes, and centrifuged at 200×g for 5 minutes. The supernatant was removed by aspiration, and the pelleted cell cluster was suspended in 2 ml of the medium at 4.5×10^5 cells/ml. An aliquot of the resulting cell suspension was cryopreserved, while another aliquot was cultured and subjected to measurement.
ATP secretion by human epidermal keratinocytes (hereinafter referred to as “keratinocytes”) was measured. Regarding control solutions, Krebs-Ringer HEPES supplemented with 0.2% BSA and 25 mM glucose (hereinafter also referred to as “Krebs/Iono(−)”) was used as a negative control, and a solution prepared by adding 5 μM ionomycin to this solution (hereinafter also referred to as “Krebs/Iono(+)”) was used as a positive control for ATP secretion. Ionomycin is a Ca^2+ ionophore. Addition of ionomycin to cells is known to promote influx of extracellular Ca^2+ into the cells to increase the intracellular Ca^2+ concentration, resulting in enhancement of ATP secretion. Test solutions were prepared by adding clodronate to Krebs/Iono(−) or Krebs/Iono(+) to a final concentration of 0.1 μM (hereinafter also referred to as “Clo/Iono(−)” or “Clo/Iono(+)”, respectively) (N=3).
Keratinocytes were cultured at 2.5×10^4 cells/well in a 24-well plate at 37° C. in 5% CO2 for 4 days. The medium was removed by aspiration, replaced with Krebs/Iono(−) or Clo/Iono(−), and incubated at 37° C. for 6 hours. These solutions were then removed by aspiration, and the content of each well incubated with Krebs/Iono(−) was replaced with 300 μl of a control solution (Krebs/Iono(−) or Krebs/Iono(+)), while the content of each well incubated with Clo/Iono(−) was replaced with 300 μl of a test solution (Clo/Iono(−) or Clo/Iono(+)). After further incubation at 37° C. for 20 minutes, 200 μl of the supernatant was collected. The collected supernatant was immediately treated on a heat block at 95° C. for 10 minutes, to inactivate ectonucleotidase. ATP in the supernatant was quantified using a Dojindo ATP assay kit−Luminescence (manufactured by Dojindo Laboratories).
Keratinocytes were cultured in the same manner as in Example 1, and ATP secretion from the keratinocytes was measured. Krebs/Iono(−), or a solution prepared by adding 10 μM imeglimin, 0.1 μM eicosapentaenoic acid (EPA), 1 μM EPA, or 10 μM clodronate to Krebs/Iono(−) was used (N=4).
After culturing keratinocytes, the medium was removed by aspiration, and replaced with Krebs/Iono(−), or Krebs/Iono(−) supplemented with 10 μM imeglimin, 0.1 μM EPA, 1 μM EPA, or 10 μM clodronate, followed by incubation for 6 hours. Subsequently, the solution was replaced with either a control solution (Krebs/Iono(−) or Krebs/Iono(+)) or a test solution (Krebs/Iono(+) supplemented with 10 μM imeglimin, 0.1 μM EPA, 1 μM EPA, or 10 μM clodronate), followed by incubation at 37° C. for 20 minutes and then collection of 200 μl of the supernatant. The collected supernatant was immediately treated on a heat block at 95° C. for 10 minutes to inactivate ectonucleotidase. ATP in the supernatant was quantified using a Dojindo ATP assay kit—Luminescence (manufactured by Dojindo Laboratories). […]

mouse auricle = experiment: Imiquimod-induced psoriasis model, comparison with an anti-TNFα antibody (Example 19); assay type: in vivo; settings: imeglimin 40 mg/kg oral daily or infliximab 100 μg/mouse i.v. Days 1, 3, 5
Experimental: The dorsal hair of mice was shaved and depilated (Day 0). To each of the left auricle and the depilated back of each mouse, 62.5 mg of 5% imiquimod cream (Beselna Cream 5%) was applied once daily a total of seven times (Days 1 to 7) in accordance with Example 18, to induce imiquimod-induced psoriasis (IMQ group). In the IMQ+IMG group, mice received oral administration of imeglimin (40 mg/kg) once daily (Day 1 to 7) after the imiquimod application. […] Thickness of the auricle was measured, and the degrees of erythema, desquamation, and infiltration in the affected area were rated on Days 1, 3, 5, 7, and 8 according to the PASI scoring of the DermNET Dermatology Resource (none: 0, mild: 1, moderate: 2, severe: 3, and very severe: 4). The resulting values were used to calculate the PASI score.
Further, for an auricle excised on Day 8, immunohistochemical staining was performed in the same manner as in Example 18, and auricular sections were imaged using a fluorescence microscope (BZ-X710; manufactured by Keyence Corporation).

Row | Compound | inhibitory activity on ATP transport [1] | further results
1 | NCCc1c[nH]c2ccc(O)cc12 [5-HT, serotonin] | – | ATP secretion from the LX-2 cells (LX-2 cells; 10 μM serotonin (5-HT) (FIG. 25)): promoted ATP secretion
2 | O=C(O)CN(CCOCCOCCN(CC(=O)O)CC(=O)O)CC(=O)O [EGTA] | – | ionomycin-induced ATP secretion (LX-2 cells; 1 mM EGTA, chelating of Ca2+, N=6 (FIG. 21)): strongly inhibited
3 | C[C@H](O)C(=O)O [L-lactic acid] | no inhibitory activity was found | –
4 | NC(=O)c1ccc[n+]([C@@H]2O[C@H](COP(=O)([O-])OP(=O)(O)OC[C@H]3O[C@@H](n4cnc5c(N)ncnc54)[C@H](O)[C@@H]3O)[C@@H](O)[C@H]2O)c1 [NAD+] | no inhibitory activity was found | –
5 | CC(=O)SCCNC(=O)CCNC(=O)[C@H](O)C(C)(C)COP(=O)(O)OP(=O)(O)OC[C@H]1O[C@@H](n2cnc3c(N)ncnc32)[C@H](O)[C@@H]1OP(=O)(O)O [acetyl-CoA] | no inhibitory activity was found | –
6 | O=C(O)CC(O)(CC(=O)O)C(=O)O [citric acid] | no inhibitory activity was found | –
7 | O=C(CO)[C@@H](O)[C@H](O)[C@H](O)COP(=O)(O)O [fructose-6-phosphate] | no inhibitory activity was found | –
8 | O=C[C@H](O)[C@@H](O)[C@H](O)[C@H](O)COP(=O)(O)O [glucose-6-phosphate] | no inhibitory activity was found | –
9 | C[C@H](CCC(=O)O)C[C@H](C)C[C@H](C)C(=O)/C=C(\O)[C@H](C)C[C@H](C)C/C=C/[C@@H](C)[C@@H](O)[C@@H](C)[C@@H](O)C[C@@H]1CC[C@@](C)([C@H]2CC[C@@](C)([C@@H](C)O)O2)O1 [ionomycin] | – | secretion of ATP by the LX-2 cells over time (LX-2 cells; ionomycin, N=3 (FIG. 20)): increased secretion of ATP; ATP secretion [2]: promotes ATP secretion
10 | O=C(O)C[C@H](O)C(=O)O [malic acid] | no inhibitory activity was found | –
11 | O=C(O)CC(=O)C(=O)O [oxaloacetic acid] | no inhibitory activity was found | –
12 | CC(=O)C(=O)O [pyruvic acid] | no inhibitory activity was found | inhibition of ATP transport ([1]; up to 1 mM pyruvic acid): did not inhibit ATP transport
13 | infliximab: infliximab (manufactured by Nichi-Iko Pharmaceutical Co., Ltd.), an anti-TNFα antibody as an existing drug | – | erythema (excepted from the symptoms reduced) (mouse auricle; N=5 (FIG. 38)): except erythema; typical psoriatic symptoms induced by imiquimod, except erythema (thickness, desquamation, infiltration, PASI score) (mouse auricle; N=5 (FIGS. 37-41)): reduced
